Data from publication PMC3262027 (Journal of Medicinal Chemistry, 2011).
Each block holds one molecule with its values, some of them ahead of it.

Columns and labels:
[1] = target: T1, human quinone reductase 2 (QR2) (Homo sapiens, UniProt P16083); assay: QR2 steady-state kinetic assay; type: biochemical; details: for inhibitory activity against QR2: result in words
T1 sequence (P16083 1-231): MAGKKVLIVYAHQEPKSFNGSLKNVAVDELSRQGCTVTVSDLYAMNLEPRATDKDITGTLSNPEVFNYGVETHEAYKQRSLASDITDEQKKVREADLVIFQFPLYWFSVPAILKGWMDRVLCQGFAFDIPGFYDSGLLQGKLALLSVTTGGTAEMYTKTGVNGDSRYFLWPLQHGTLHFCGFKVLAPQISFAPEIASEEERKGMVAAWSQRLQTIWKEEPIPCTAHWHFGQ

[2] = test system: normal prostate stromal cells (PrSCs); details: result in words; cited from earlier work
[3] = test system: normal prostate epithelial cells (PrECs); details: result in words; cited from earlier work

- increase in QR2 inhibitory activity ([1]; relative to 12): 10 fold
Structure (SMILES): COC(=O)c1cc(C(N)=O)nc2cc(N)c(N)c(Cl)c12 [Compound 23, Methyl 6,7-Diamino-2-carbamoyl-5-chloroquinoline-4-carboxylate]

Structure (SMILES): COC(=O)C1CC(O)(C(=O)OC)c2c(N)c(Cl)cc(Cl)c2N1 (centres unmarked) [Compound 26, Dimethyl 5-Amino-6,8-dichloro-4-hydroxy-1,2,3,4-tetrahydroquinoline-2,4-dicarboxylate]
- inhibitory activity against QR2 [1]: none showed inhibitory activity

Structure (SMILES): COC(=O)C1CC2(O)C(=O)Nc3c(Cl)cc(Cl)c(c32)N1 (centres unmarked) [Compound 33, Methyl 6,8-Dichloro-2a-hydroxy-2-oxo-1,2,2a,3,4,5-hexahydropyrrolo[4,3,2-d,e]quinoline-4-carboxylate]
- inhibitory activity against QR2 [1]: none showed inhibitory activity

Structure (SMILES): Oc1ccc(/C=C/c2cc(O)cc(O)c2)cc1 [resveratrol]
- effect on cellular proliferation of PrSCs [2]: dose-dependent inhibition of cellular proliferation
- effect on PrEC growth [3]: no effect
